Assay: CO concentration of the CO-containing compositions analyzed by gas chromatography
Assay type: physicochemical
Conditions: about 2 atm; for CO concentration of liquid phase obtained by actual measurement: solvent H2O; for CO concentration in liquid phase obtained by actual measurement: solvent carbomer aqueous solution; for CO concentration of IPM: solvent isopropyl myristate
Experimental: (§1) Pure water (2.5 mL) was placed in a vial. (3 mL, produced by Maruemu Corporation), and the vial was sealed with a rubber stopper and an aluminum seal. Next, a gas (N2 balance) having an arbitrarily adjusted CO concentration was collected in a Tedlar bag (1 L, produced by AS ONE Corporation). The air in the gas phase in the vial was replaced with the gas in the Tedlar bag until pressure reached about 2 atm by using a gas-tight syringe (M-GAN500, produced by Ito Corporation). Subsequently, the resulting product was allowed to stand until CO in the gas phase was dissolved in the liquid phase to reach equilibrium.
The CO concentration of the compositions was analyzed by gas chromatography (GC-2014 FID produced by Shimadzu Corporation).
as §1, with “Isopropyl myristate (IPM: Wako first grade, produced by Fujifilm Wako Pure” for “Pure”, “Chemical Corporation)” for “water”, “vial” for “vial.”, “(MS-GAN500,” for “(M-GAN500,”
The CO concentration of the obtained compositions was analyzed by gas chromatography (GC-2014 FID produced by Shimadzu Corporation). When the CO (%) in the gas phase in the Tedlar bag was 18%, the CO concentration of IPM was 1500 μM. When the CO (%) in the gas phase in the Tedlar bag was 100%, the CO concentration of IPM was 9000 μM.
as §1, with “The carbomer aqueous solution” for “Pure water”, “vial” for “vial.”, “(MS-GAN500,” for “(M-GAN500,”
as §1, with “The hydroxyethyl cellulose aqueous solution” for “Pure water”, “vial” for “vial.”, “(MS-GAN500,” for “(M-GAN500,”
The CO concentration of the obtained CO-containing compositions was analyzed by gas chromatography (GC-2014 FID produced by Shimadzu Corporation). When the CO (%) in the gas phase in the Tedlar bag was 100%, the CO concentration in the hydroxyethyl cellulose aqueous solution was 1500 μM.

[1] = CO in gas phase in Tedlar bag 8% (theoretical value)
[2] = CO in gas phase in Tedlar bag 100% (theoretical value)

Compound: [C-]#[O+] [CO, carbon monoxide]
- CO concentration of liquid phase obtained by actual measurement [1]: 100 µM
- CO concentration of liquid phase obtained by actual measurement (CO in gas phase in Tedlar bag 34% (theoretical value)): 500 µM
- CO concentration of liquid phase obtained by actual measurement (CO in gas phase in Tedlar bag 67% (theoretical value)): 1000 µM
- CO concentration of liquid phase obtained by actual measurement [2]: 1500 µM
- CO concentration in liquid phase obtained by actual measurement [1]: 100 µM
- CO concentration in liquid phase obtained by actual measurement (CO in gas phase in Tedlar bag 35% (theoretical value)): 500 µM
- CO concentration in liquid phase obtained by actual measurement [2]: 1500 µM
- CO concentration in the hydroxyethyl cellulose aqueous solution (solvent hydroxyethyl cellulose aqueous solution, CO in gas phase in Tedlar bag 100%): 1500 µM
- CO concentration of IPM (CO in gas phase in Tedlar bag 18%): 1500 µM
- CO concentration of IPM (CO in gas phase in Tedlar bag 100%): 9000 µM

— patent US20210228621A1, “COMPOSITION FOR SKIN WOUNDS” (SUMITOMO SEIKA CHEMICALS CO., LTD., priority 2018, published 2021)
